According to PubChem BioAssay AID1996:
≈ marks a conversion by molar mass, not a printed value.

conditions: buffer; pH 7.4; 200.0 µM

SMILES | solubility kinetic [µg/mL]
NC(=O)c1[nH]cnc1N | > 18.9
Nc1c(Cl)cnc(C(Cl)(Cl)Cl)c1Cl | 19.6 (≈ 69.9 µM)
CCOC(=O)c1[nH]c(C)c(C(=O)OCc2ccc(C)cc2)c1C | 1.1 (≈ 3.49 µM)
Cc1cccc(NC(=O)N2C3CCCC2CC(NC(=O)C2CC2)C3)c1 (stereo not given) | 22.7 (≈ 66.5 µM)
CCN1C(=O)/C(=C/N2CCc3ccccc3C2)SC1=S | < 0.3
COc1cccc(NC(=O)CN(C)C(=O)C2=COCCO2)c1 | 43.1 (≈ 141 µM)
COc1cccc(NC(=O)CN(C)C(C)C(=O)N2CCCC2)c1 (stereo not given) | 44.4 (≈ 139 µM)
O=C(O)CCSc1nc2ccccc2n1-c1ccccc1 | > 44.8
O=C(Nc1c[nH]c(=O)[nH]c1=O)c1ccccc1Cl | > 39.8
COc1ccc(Cl)cc1C(=O)Nc1ccc2c(c1)OCCO2 | 0.9 (≈ 2.81 µM)
CC(C)(C)C(=O)Nc1nc2cc3c(cc2s1)OCO3 | 0.6 (≈ 2.16 µM)
CCN(c1ccccc1)S(=O)(=O)c1ccc(OC)c(NC(=O)C2CCC2)c1 | 23 (≈ 59.2 µM)
CC(=O)N1c2ccccc2C(C)=CC1(C)C | 8.1 (≈ 37.6 µM)
Cl.O=C(CN1CCCCC1)c1ccc(F)cc1 | > 38.7
CC1CCCC(NC(=O)c2ccncc2)C1C (stereo not given) | > 34.8
O=C1OCc2nc3cc4c(cc3c(-c3ccc(F)cc3)c21)OCO4 | 1.2 (≈ 3.71 µM)
O=C(NCCc1ccccc1)c1ccc2c(c1)OCCO2 | > 42.5
Cc1cccc(OCCCC(=O)Nc2nccs2)c1C | 1.5 (≈ 5.17 µM)
Cc1cc(SCC(=O)N(C)C2CCCCC2)nc2ccccc12 | 19.4 (≈ 59.1 µM)
O=C(Nc1ccc2[nH]c(=O)[nH]c2c1)Nc1ccc(F)cc1F | 3.7 (≈ 12.2 µM)

SMILES | solubility kinetic [µg/mL]
COc1ccc(NC(=O)CNC(=O)c2cccs2)cc1Cl | 2.7 (≈ 8.31 µM)
O=C(c1ccccc1)c1cc2c(cc1[N+](=O)[O-])OCCO2 | 7.3 (≈ 25.6 µM)
CN1C(=O)/C(=C\c2ccco2)N=C1c1ccc(Cl)cc1Cl | 33 (≈ 103 µM)
CCOc1ccc(S(=O)(=O)N2CN3CCN(C3)C2)cc1 | > 44.6
COc1cccc(OC)c1C(=O)OCC(=O)N1CCC(Cc2ccccc2)CC1 | 5.2 (≈ 13.1 µM)
CCCCN=C1CC(C)(C)CC(=O)/C1=C(/O)CCC | > 39.8
S=C(NCc1ccccc1)NCc1ccccn1 | > 38.6
Cc1nc(CN(C)Cc2nc(Cc3ccccc3Cl)no2)cs1 | 44.3 (≈ 127 µM)
Cc1cc(NC(=O)CCc2ccc(-c3ccccc3)o2)no1 | 2.4 (≈ 8.1 µM)
Cn1c(NC(=O)c2ccc(F)cc2)nc2ccccc21 | 4.8 (≈ 17.8 µM)
C(=C\c1ccccc1)/CSc1nc2ncccc2[nH]1 | 8.9 (≈ 33.3 µM)
CC(C)Sc1cc(Cl)nc(NC(=O)Nc2ccccc2)n1 | 0.4 (≈ 1.24 µM)
Nc1cc(OCC(F)(F)F)cc(OCC(F)(F)F)c1 | > 43.4
O=S1(=O)CCN(Cc2csc(-c3cccs3)n2)CC1 | > 47.2
COc1ccc(Cl)cc1/C=C(\C#N)C(N)=O | > 35.5
Cc1cn(CC(=O)c2ccccc2)c2ccccc12 | 1.2 (≈ 4.81 µM)
Cc1noc(C)c1-c1nc(CS(=O)(=O)c2ccccc2)no1 | 8 (≈ 25.1 µM)
COc1ccccc1CNCC(c1ccccc1)c1ccccc1 | 33.6 (≈ 106 µM)
COc1ccccc1NC(=O)c1ccc(-c2ccccc2[N+](=O)[O-])o1 | 1.6 (≈ 4.73 µM)
CC(=O)Nc1ccc(S(=O)(=O)N(C)C2CCN(C)CC2)cc1 | > 48.8

SMILES | solubility kinetic [µg/mL]
CCOc1ccc(C(=O)N2CCN(c3ccccn3)CC2)cc1 | > 46.7
Cc1cccc(C(=O)OCC(=O)c2ccc3c(c2)NC(=O)CO3)c1 | 4.5 (≈ 13.8 µM)
O=C(c1ccc(Cl)c(S(=O)(=O)N2CCOCC2)c1)N1CCCC1 | > 53.8
N#C/C(=C\Nc1ccc(Cl)cn1)S(=O)(=O)c1ccccc1 | < 0.2
CC(C)c1cccc(C(C)C)c1OCCCCCN1CCOCC1 | 33.4 (≈ 100 µM)
Brc1cccc(C2Nc3cccc4cccc(c34)N2)c1 | < 0.3
CCn1nc(C(C)C(=O)O)c2ccccc2c1=O (stereo not given) | > 36.9
Cn1c(O)c(/C=C2\C=Nc3ccc(Br)cc32)c(=O)n(C)c1=O | 0.9 (≈ 2.48 µM)
NC(=O)NC(=O)COC(=O)c1cccnc1Nc1ccccc1F | 4.6 (≈ 13.8 µM)
CC(=O)N/C(=N\c1nc(C)cc(C)n1)Nc1ccccc1Cl | 0.5 (≈ 1.57 µM)
COc1ccc(NC(=O)NCCCCc2ccccc2)c(OC)c1 | 0.7 (≈ 2.13 µM)
COc1ccc(CCNC(=O)Nc2cccc([N+](=O)[O-])c2)cc1OC | 39.8 (≈ 115 µM)
CC(=O)N=c1c(C#N)cc2c(=O)n3cccc(C)c3nc2n1Cc1ccco1 | 5.1 (≈ 13.7 µM)
COc1cc2c(cc1OC)CN(c1ccc(C(N)=O)cc1[N+](=O)[O-])CC2 | 6.4 (≈ 17.9 µM)
CC(=O)c1cccc(NC(=O)/C(=C/c2ccncc2)NC(=O)c2ccccc2)c1 | 4.2 (≈ 10.9 µM)
CC(OC(=O)c1ccc([N+](=O)[O-])cc1)C(=O)NCC1CCCCC1 (stereo not given) | 5.6 (≈ 16.7 µM)
COc1cc(CC(=O)Nc2cccc(S(=O)(=O)N(C)c3ccccc3)c2)cc(OC)c1OC | 14.1 (≈ 30 µM)
COc1ccccc1OCCNC(=O)CCNC(=O)c1ccccc1Cl | > 56.5
Cn1cccc1C(=O)OCC(=O)c1ccc(Br)s1 | 7.9 (≈ 24.1 µM)
CC1(C)CC(NCc2ccncc2)CC(C)(C)N1 | 32.2 (≈ 130 µM)
